Assay results as given in patent US20110250184A1, “METHODS FOR DETERMINING EFFICACY OF A THERAPEUTIC REGIMEN AGAINST DELETERIOUS EFFECTS OF CYTOTOXIC AGENTS IN HUMAN” (priority 2008, published 2011).
“Also recorded” adds a separate entry of the source.

Columns and labels:
[1] = Free radical scavenger / antioxidant activity
CYP450 2C9 = CYP450 2C9 (Homo sapiens, UniProt P11712); format: in vitro ADME
Method: Additional biochemical studies were performed to screen for potential secondary or non-specific activities. ON 01210.Na was subjected to in vitro primary screening across a broad panel of 67 radioligand receptor binding assays and five cytochrome P450 enzymes: 1A2, 2C9, 2C19, 3A4, and 2D6. […] Only one cytochrome assay, CYP450 2C9, in which the activity was […] 98%, yielded a response that was considered significant. Thus, as a preliminary screen for safety and selectivity profiling, no targets were identified.

[2] = test system: mice exposed to lethal doses of whole body ionizing radiation; assay: In vivo survival studies in mice after lethal whole body radiation (30-day survival model)
Method: (§1) Since survival of animals after radiation exposure depends largely on the protection of the hematopoietic system, the effect of ON 01210.Na treatment on hematopoietic cell survival was investigated using various schedules before radiation exposure. The radioprotection of hematopoietic cells by ON 01210.Na was studied in an in vivo assay using a sub lethal dose of radiation. C3H/HEJ mice were treated with ON 01210.Na following various schedules in order to determine the optimal dose and schedule of ON 01210.Na for maximum protection of the hematopoietic system in mice.
In vivo survival studies in mice were designed to explore the effects of dose and schedule on survival, based on the well-established 30-day survival model, establish a dose reduction factor (DRF) for ON 01210.Na, compare two different formulations (suspension vs. solution) of ON 01210.Na; and show protection and recovery benefits of ON 01210.Na to the hematopoietic system and gastrointestinal tract of treated mice.
Two dose reduction factor (DRF) studies determined that the DRF for ON 01210.Na was 1.14 to 1.16.

[3] = test system: bone marrow of irradiated mice; assay: In vivo radiation protection assay, bone marrow colony forming units of irradiated mice; design: species or system C3H/HEJ mice; settings: for Differential colony counts, GM / Differential colony counts, Granulocytes / Differential colony counts, Macrophages / Differential colony counts, Total CFU: 500 mg/kg sc -24 h and -15 min
Method: (§2) FIG. 4. ON 01210.Na protects the bone marrow of irradiated mice. A. Mice were injected with 500 mg/kg of ON 01210.Na formulated in 1% Polysorbate 80/K-phosphate buffer or vehicle alone by sc injections minus 24 hrs and minus 15 minutes before 5.5 Gy of whole body ionizing radiation treatment. Whole blood was collected on the indicted days and WBC counts were performed following RBC lysis. The data is plotted as the average of three mice per group +/−SEM (N:3×3=9 plates). B. Pictures of representative plates. […] C. White blood cell counts. Whole blood was collected on the indicted days and WBC counts were performed following RBC lysis. The data is plotted as the average of 3 mice per group±SEM (N=3).
as §1
as §2, with “A.” for “FIG. 4. ON 01210.Na protects the bone marrow of irradiated mice. A.”, “group+/−SEM” for “group +/−SEM”, “(N=3). Lineage specific protection was studied by identifying and tabulating three lineages, granulocytes, macrophages and granulocyte-macrophages (GM).” for “(N=3).”
In order to determine the optimal schedule of ON 01210.Na treatment for maximum protection of the bone marrow, bone marrow protection of mice injected with a single dose of ON 01210.Na at minus 15 minutes or minus 4 hours was compared with mice injected with two doses described above. The most efficient protection of the bone marrow was found when the mice were injected at minus 24 hours and minus 15 minutes before radiation exposure. […] These experiments imply that a single injection just before exposure will protect and increase the recovery of bone marrow cells after radiation exposure.

cells = format: cell-based

Sequence of CYP450 2C9 (P11712 whole entry): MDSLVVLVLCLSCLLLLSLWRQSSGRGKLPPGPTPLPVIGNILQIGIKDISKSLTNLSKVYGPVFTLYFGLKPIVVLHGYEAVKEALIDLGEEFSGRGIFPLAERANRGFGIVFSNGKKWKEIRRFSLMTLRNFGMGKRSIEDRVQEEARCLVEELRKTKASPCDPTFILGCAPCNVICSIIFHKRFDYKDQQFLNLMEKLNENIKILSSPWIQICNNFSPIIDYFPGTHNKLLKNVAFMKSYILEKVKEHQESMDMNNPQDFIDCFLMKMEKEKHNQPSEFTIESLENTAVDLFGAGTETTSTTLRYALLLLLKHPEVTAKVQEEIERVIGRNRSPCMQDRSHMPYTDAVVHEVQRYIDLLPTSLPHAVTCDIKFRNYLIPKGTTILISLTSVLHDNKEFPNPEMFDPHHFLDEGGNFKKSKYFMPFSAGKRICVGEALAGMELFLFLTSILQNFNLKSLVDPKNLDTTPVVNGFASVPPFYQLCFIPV

## O=C([O-])c1ccc(/C=C/S(=O)(=O)Cc2ccc(Cl)cc2)cc1.[Na+] [ON 01210.Na, E-4-Carboxystyryl-4-chlorobenzylsulfone sodium salt]
[1]
  activity as a free radical scavenger or antioxidant: did not exhibit any significant activity
CYP450 2C9
  CYP450 2C9 activity, stimulation: 98%
[2]; 50 mg/kg to 500 mg/kg, p<0.05 vs. vehicle
  protection against radiation lethality: dose-dependent protection
[2]; 500 mg/kg pretreatment
  protection from LD50/30 whole body radiation dose: completely and reproducibly protected
[2]; double injection, minus 24 hour and minus 15 minutes, prior to lethal ionizing radiation
  mice protected (survival): 100%
[2]; same dosing regimen, solution formulation vs suspension
  efficacy of solution formulation: similarly effective
[2]; single injection at minus 15 minutes prior to lethal ionizing radiation
  mice protected (survival): 100%
[3]; 5.5 Gy IR, day 4
  Differential colony counts, GM: 8
  Differential colony counts, Granulocytes: 9
  Differential colony counts, Macrophages: 4
  Differential colony counts, Total CFU: 21
[3]; 5.5 Gy IR, day 7
  Differential colony counts, GM: 9
  Differential colony counts, Granulocytes: 13
  Differential colony counts, Macrophages: 2
  Differential colony counts, Total CFU: 24
[3]; 5.5 Gy IR, day 12
  Differential colony counts, GM: 16
  Differential colony counts, Granulocytes: 16
  Differential colony counts, Macrophages: 5
  Differential colony counts, Total CFU: 37
[3]; 5.5 Gy IR, day 18
  Differential colony counts, GM: 72
  Differential colony counts, Granulocytes: 58
  Differential colony counts, Macrophages: 16
  Differential colony counts, Total CFU: 146
[3]; No IR, day 4
  Differential colony counts, GM: 111
  Differential colony counts, Granulocytes: 27
  Differential colony counts, Macrophages: 9
  Differential colony counts, Total CFU: 147
[3]; No IR, day 7
  Differential colony counts, GM: 120
  Differential colony counts, Granulocytes: 18
  Differential colony counts, Macrophages: 5
  Differential colony counts, Total CFU: 143
[3]; No IR, day 12
  Differential colony counts, GM: 116
  Differential colony counts, Granulocytes: 64
  Differential colony counts, Macrophages: 14
  Differential colony counts, Total CFU: 194
[3]; No IR, day 18
  Differential colony counts, GM: 119
  Differential colony counts, Granulocytes: 39
  Differential colony counts, Macrophages: 39
  Differential colony counts, Total CFU: 197
[3]; 500 mg/kg sc -24 h and -15 min before 5.5 Gy whole body IR, sodium salt
  protection and recovery of the bone marrow: significantly increased the recovery of the bone marrow; also recorded: significantly protected
[3]; administration -15 min relative to IR exposure, day 4
  Percent Colony Forming Units: 9%
[3]; administration -15 min relative to IR exposure, day 7
  Percent Colony Forming Units: 13%
[3]; administration -15 min relative to IR exposure, day 12
  Percent Colony Forming Units: 17%
[3]; administration -15 min relative to IR exposure, day 18
  Percent Colony Forming Units: 80%
[3]; administration -4 h relative to IR exposure, day 4
  Percent Colony Forming Units: 6%
[3]; administration -4 h relative to IR exposure, day 7
  Percent Colony Forming Units: 10%
[3]; administration -4 h relative to IR exposure, day 12
  Percent Colony Forming Units: 12%
[3]; administration -4 h relative to IR exposure, day 18
  Percent Colony Forming Units: 51%
[3]; administration -24 h and -15 min relative to IR exposure, day 4
  Percent Colony Forming Units: 14%
[3]; administration -24 h and -15 min relative to IR exposure, day 7
  Percent Colony Forming Units: 16%
[3]; administration -24 h and -15 min relative to IR exposure, day 12
  Percent Colony Forming Units: 25%
[3]; administration -24 h and -15 min relative to IR exposure, day 18
  Percent Colony Forming Units: 100%
[3]; mice injected without radiation exposure
  macrophage colony number: slight increase
[3]; single injection 4 hours prior to radiation exposure, sodium salt
  recovery of bone marrow versus vehicle: did not show a significant advantage; also recorded: not significantly increased
cells
  cell cycle arrest: did not cause cell cycle arrest
  cytotoxicity: not cytotoxic
